pIC50: −log10 of the molar value.
Columns and labels:
human TRPA1 ion channel = target: T1, human TRPA1 ion channel (Homo sapiens, UniProt O75762); experiment: Assay A: TRPA1 assay (FLIPR calcium, AITC agonism, HEK293 over-expressing human TRPA1); type: cell-based; conditions: read-out: hTRPA1 IC50
T1 construct: host or cells: HEK293
Method: A human HEK293 cell line over-expressing the human TRPA1 ion channel (Perkin Elmer, Product No. AX-004-PCL) is used as a test system for compound efficacy and potency. Compound activity is determined by measuring the effect of compounds on intracellular calcium concentration induced by AITC (Allylisothiocyanate) agonism in a FLIPRtetra system (Molecular Devices).
The cells are obtained as frozen cells in cryo-vials and stored until use at −150° C. Cells are grown in culture medium (MEM/EBSS medium with 10% FCS and 0.4 mg/ML Geneticin). […] For sub-culturing cells are detached from flasks by Versene. At the day before the assay, cells are detached, washed twice with medium (MEM/EBSS medium with 10% FCS) and 20000 cells in 20 μl/well are seeded to Poly D-Lysin biocoated 384-well plates (black, clear bottom, Cat. 356697) from Corning. Plates are incubated for 24 hours at 37° C./5% CO2 before use in the assay.
The test compounds are dissolved in 100% DMSO at a concentration of 10 mM and in a first step diluted in DMSO to a concentration of 5 mM, followed by serial dilution steps in 100% DMSO. Dilution factor and number of dilution steps may vary according to needs. Typically 8 different concentrations by 1:5 dilutions are prepared, further intermediate dilutions (1:20) of the substances are carried out with HBSS/HEPES buffer (1×HEPES, Cat. 14065 from Gibco, 20 mM HEPES, Cat. 83264 from SIGMA, 0.1% BSA Cat. 11926 from Invitrogen, pH 7.4
At the assay day cells are washed 3× with assay puffer, 20 μL buffer remaining in the wells after washing. 10 μL Ca6 kit (Cat. R8191 MolecularDevices) loading buffer in HBSS/HEPES is added to the cells and the plates are incubated with lid for 120 minutes at 37°/5% CO2. 10 μL of compound or controls in HBSS/HEPES buffer/5% DMSO from the intermediate dilution plate are carefully added to the wells. […] Finally 10 μL of the agonist AITC 50 μM dissolved in HBSS/HEPES buffer/0.05% DMSO (final concentration 10 μM) is added to the wells followed by an additional read on the FLIPRtetra device for 10 minutes. The area under the signal curve (AUC) after AITC addition is used for IC50/% inhibition calculations
Data Evaluation and Calculation:
Each assay microtiter plate contains wells with vehicle (1% DMSO) controls instead of compound as controls for AITC induced luminescence (100% CTL; high controls) and wells with vehicle controls without AITC as controls for non-specific changes in luminescence (0% CTL; low controls).
The analysis of the data is performed by the calculation of the area under signal curve of the individual wells. Based on this values the % value for the measurement of each substance concentration is calculated (AUC(sample)−AUC(low))*100/(AUC(high)−AUC(low)) using MegaLab software (in house development). The IC50 values are calculated from the % control values using MegaLab software. Calculation: [y=(a−d)/(1+(x/c)^b)+d], a=low value, d=high value; x=conc M; c=IC50 M; b=hill; y=% ctrl

[1] = Assay C: Hepatocyte clearance; type: in vitro ADME, human; conditions: compounds of the invention; hepatocyte suspension, 5% species serum, test compound 1 μM, six hours
Method: Evaluation of Hepatocyte Clearance Assay C: Hepatocyte Clearance
The metabolic degradation of the test compound is assayed in a hepatocyte suspension. Hepatocytes (cryopreserved) are incubated in Dulbecco's modified eagle medium (supplemented with 3.5 μg glucagon/500 mL, 2.5 mg insulin/500 mL and 3.75 mg/500 mL hydrocortisone) containing 5% species serum.
The cells are incubated for six hours (incubator, orbital shaker) and samples (25 μl) are taken at 0, 0.5, 1, 2, 4 and 6 hours. Samples are transferred into acetonitrile and pelleted by centrifugation (5 min). The supernatant is transferred to a new 96-deepwell plate, evaporated under nitrogen and resuspended.
Decline of parent compound is analyzed by HPLC-MS/MS
CLint is calculated as follows CL_[…]=Dose/AUC=(C0/CD)/(AUD+clast/k)×1000/60. C0: initial concentration in the incubation [μM], CD: cell density of vital cells [10e6 cells/mL], AUD: area under the data [μM×h], clast: concentration of last data point [μM], k: slope of the regression line for parent decline [h−1].
The calculated in vitro hepatic intrinsic clearance can be scaled up to the intrinsic in vivo hepatic Clearance and used to predict hepatic in vivo blood clearance (CL) by the use of a liver model (well stirred model).

[2] = Assay B: Microsomal clearance; type: in vitro ADME, human; conditions: compounds of the invention; pooled liver microsomes 1 mg/ml, test compound 1 μM, NADPH, 37° C.
Method: Evaluation of Microsomal Clearance Assay B: Microsomal Clearance:
The metabolic degradation of the test compound is assayed at 37° C. with pooled liver microsomes. The final incubation volume of 100 μl per time point contains TRIS buffer pH 7.6 at RT (0.1 M), magnesium chloride (5 mM), microsomal protein (1 mg/ml) and the test compound at a final concentration of 1 μM.
Following a short preincubation period at 37° C., the reactions are initiated by addition of beta-nicotinamide adenine dinucleotide phosphate, reduced form (NADPH, 1 mM) and terminated by transferring an aliquot into solvent after different time points (0, 5, 15, 30, 60 min). Additionally, the NADPH-independent degradation is monitored in incubations without NADPH, terminated at the last time point. The [%] remaining test compound after NADPH independent incubation is reflected by the parameter c(control) (metabolic stability). The quenched incubations are pelleted by centrifugation (10000 g, 5 min). An aliquot of the supernatant is assayed by LC-MS/MS for the amount of parent compound. The half-life (t½ INVITRO) is determined by the slope of the semilogarithmic plot of the concentration-time profile.

T1 sequence (O75762 whole entry): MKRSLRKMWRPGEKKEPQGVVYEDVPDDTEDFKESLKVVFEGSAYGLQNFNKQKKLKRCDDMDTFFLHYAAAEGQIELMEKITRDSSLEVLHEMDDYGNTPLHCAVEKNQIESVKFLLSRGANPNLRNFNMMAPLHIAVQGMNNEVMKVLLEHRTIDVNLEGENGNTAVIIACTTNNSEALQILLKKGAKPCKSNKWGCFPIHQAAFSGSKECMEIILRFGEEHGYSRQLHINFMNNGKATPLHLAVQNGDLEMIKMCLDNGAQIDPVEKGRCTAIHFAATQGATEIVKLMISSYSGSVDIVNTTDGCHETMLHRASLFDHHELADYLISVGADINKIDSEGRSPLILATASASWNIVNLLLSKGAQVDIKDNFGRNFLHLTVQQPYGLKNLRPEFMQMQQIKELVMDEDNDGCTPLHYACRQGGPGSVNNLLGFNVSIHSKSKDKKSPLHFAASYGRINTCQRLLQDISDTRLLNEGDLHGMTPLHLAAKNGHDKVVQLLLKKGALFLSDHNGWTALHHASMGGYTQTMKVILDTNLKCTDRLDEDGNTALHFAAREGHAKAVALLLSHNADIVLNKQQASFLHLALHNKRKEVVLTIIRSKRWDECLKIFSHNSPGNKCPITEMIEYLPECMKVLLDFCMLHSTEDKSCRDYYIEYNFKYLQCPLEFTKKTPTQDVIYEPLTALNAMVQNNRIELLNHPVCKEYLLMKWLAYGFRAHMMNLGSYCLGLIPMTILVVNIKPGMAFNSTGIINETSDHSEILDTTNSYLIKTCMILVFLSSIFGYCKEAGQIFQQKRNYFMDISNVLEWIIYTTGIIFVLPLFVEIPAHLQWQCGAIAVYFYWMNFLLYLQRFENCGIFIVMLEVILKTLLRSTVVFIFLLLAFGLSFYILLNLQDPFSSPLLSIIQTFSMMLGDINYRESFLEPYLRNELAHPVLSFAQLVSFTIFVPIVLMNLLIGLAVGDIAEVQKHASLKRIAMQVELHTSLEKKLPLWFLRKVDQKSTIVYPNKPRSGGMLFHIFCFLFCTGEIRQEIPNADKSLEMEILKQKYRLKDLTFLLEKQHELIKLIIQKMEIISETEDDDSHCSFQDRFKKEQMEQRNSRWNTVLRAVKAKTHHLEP

| Compound | pIC50 (human TRPA1 ion channel) | human Hepatocytes [1] | human LM [2] |
| --- | --- | --- | --- |
| NC(=O)c1csc2ncn(Cc3nc(C[C@H](O)c4cc5cc(Cl)ccc5o4)no3)c(=O)c12 [Example 4] | 8.05 | 34 % Qh | 34 % Qh |
| NC(=O)c1csc2ncn(Cc3nc(C[C@H](O)c4cc5cc(F)ccc5o4)no3)c(=O)c12 [Example 6] | 7.92 | 22 % Qh | 23 % Qh |
| NC(=O)c1csc2ncn(Cc3nc(C[C@H](O)c4ccc(Cl)cc4)no3)c(=O)c12 [Example 1, 3-({3-[(2S)-2-(4-chlorophenyl)-2-hydroxyethyl]-1,2,4-oxadiazol-5-yl}methyl)-4-oxo-3H,4H-thieno[2,3-d]pyrimidine-5-carboxamide] | 7.54 | 22 % Qh | <23 % Qh |
| NC(=O)c1csc2ncn(Cc3nc(C[C@H](O)c4cc5ccccc5s4)no3)c(=O)c12 [Example 3] | 8.05 |  | 39 % Qh |
| NC(=O)c1csc2ncn(Cc3nc(C[C@H](O)c4cc5ccc(F)cc5s4)no3)c(=O)c12 [Example 2] | 8.15 | 36 % Qh | 43 % Qh |
| Cc1ccc([C@@H](O)Cc2noc(Cn3cnc4scc(C(N)=O)c4c3=O)n2)cc1 [Example 7] | 7.66 | 26 % Qh |  |
| NC(=O)c1csc2ncn(Cc3nc(C[C@H](O)c4ccc(F)cc4)no3)c(=O)c12 [Example 8] | 7.24 | 13 % Qh | <23 % Qh |
| COc1ccc([C@@H](O)Cc2noc(Cn3cnc4scc(C(N)=O)c4c3=O)n2)cc1 [Example 10] | 7.06 | 19 % Qh | <23 % Qh |
| NC(=O)c1csc2ncn(Cc3nc(C[C@H](O)c4ccc(Cl)s4)no3)c(=O)c12 [Example 9] | 7.11 | 61 % Qh | 27 % Qh |
| NC(=O)c1csc2ncn(Cc3nc(C[C@H](O)c4ccc(I)cc4)no3)c(=O)c12 [Example 5] | 7.92 | 24 % Qh | <23 % Qh |

— patent US12180223B2 (Boehringer Ingelheim International GmbH, priority 2021, dated 2024)
